Data from patent US20240343694A1, “PYRIMIDINE DERIVATIVE, METHOD FOR PREPARING SAME, AND PHARMACEUTICAL COMPOSITION FOR PREVENTING OR TREATING CANCER COMPRISING SAME AS ACTIVE INGREDIENT” (KOREA RESERARCH INSTITUTE OF CHEMICAL TECHNOLOGY, priority 2021, published 2024).

Assays:
Assay type in all cases: biochemical
Conditions in all cases: recombinant enzyme, 37° C. for 2 hours
EGFR A763_Y764insFHEA = EGFR A763_Y764insFHEA (Homo sapiens (Human), UniProt P00533, INS763FHEA); assay: HTRF inhibitory activity against EGFR mutant enzyme (EGFR A763_Y764insFHEA)
Sequence of EGFR A763_Y764insFHEA (P00533 other isoform, or with tags, fused parts or gaps del 1-694/ins FHEA behind 763 limits assumed): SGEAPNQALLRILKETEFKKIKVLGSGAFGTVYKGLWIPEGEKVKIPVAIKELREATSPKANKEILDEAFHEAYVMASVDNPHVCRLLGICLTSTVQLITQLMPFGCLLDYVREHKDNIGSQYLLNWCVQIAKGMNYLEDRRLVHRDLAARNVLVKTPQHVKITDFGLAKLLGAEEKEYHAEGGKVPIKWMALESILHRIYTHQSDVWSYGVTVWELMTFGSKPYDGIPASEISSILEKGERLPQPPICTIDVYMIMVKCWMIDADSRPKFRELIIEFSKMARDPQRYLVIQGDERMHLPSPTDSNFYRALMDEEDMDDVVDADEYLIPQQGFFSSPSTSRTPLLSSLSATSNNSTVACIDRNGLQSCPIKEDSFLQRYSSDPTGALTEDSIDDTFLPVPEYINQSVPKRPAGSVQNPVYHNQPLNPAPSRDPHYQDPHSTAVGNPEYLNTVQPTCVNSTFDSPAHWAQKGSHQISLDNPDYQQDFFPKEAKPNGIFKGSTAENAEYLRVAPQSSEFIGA
Description: (§1) The activity of the compounds of the present invention against EGFR mutant enzymes was measured using the HTRF system purchased from Cisbio as follows. For an EGFR mutant enzyme, the EGFR del19 enzyme was a recombinant protein purchased from Carna Biosciences, and the EGFR A763_Y764insFHEA enzyme was a recombinant protein purchased from SignalChem, respectively.
(§2) The composition of the assay buffer used for activity measurement was 50 mM tris-HCl pH 7.5, 100 mM NaCl, 7.5 mM MgCl2, 3 mM KCl, 0.01% tween 20, 0.1% BSA, and 1 mM DTT. An enzymatic reaction was performed using a peptide substrate labeled with ATP at a concentration of […] and biotin at a concentration of […]. The analysis of the inhibitory effect of the compounds on EGFR activity was performed according to the following method. • Component 1:4 μL of EGFR mutant enzyme • Component 2:2 μL of compound solution • Component 3:4 μL of ATP and a biotin labeled peptide
(§3) The enzyme reaction begins by first mixing component 1 and component 2 and then adding component 3 thereto. After the reaction at 37° C. for 2 hours, […] of a measurement solution consisting of streptavidin-XL665 and a europium-labeled anti-phosphotyrosine antibody purchased from Cisbio was added to the enzyme reaction solution and reacted at room temperature for 1 hour. Finally, the ratio of fluorescence values at 615 nm and 665 nm was measured using Perkin-Elmer's Envision instrument to calculate enzyme activity and confirm the inhibitory ability of the compounds. The measured values at 7 compound concentrations were analyzed using the Prism program (version 5.01, Graphpad Software, Inc.), and the IC50 (μM) values, which are measures of the compounds' inhibitory activity, were calculated.

EGFR del19 = EGFR del19 (Homo sapiens (Human), UniProt P00533, DEL746-750); assay: HTRF inhibitory activity against EGFR mutant enzyme (EGFR del19)
Sequence of EGFR del19 (P00533 other isoform, or with tags, fused parts or gaps del 1-668/del 746-750 limits assumed): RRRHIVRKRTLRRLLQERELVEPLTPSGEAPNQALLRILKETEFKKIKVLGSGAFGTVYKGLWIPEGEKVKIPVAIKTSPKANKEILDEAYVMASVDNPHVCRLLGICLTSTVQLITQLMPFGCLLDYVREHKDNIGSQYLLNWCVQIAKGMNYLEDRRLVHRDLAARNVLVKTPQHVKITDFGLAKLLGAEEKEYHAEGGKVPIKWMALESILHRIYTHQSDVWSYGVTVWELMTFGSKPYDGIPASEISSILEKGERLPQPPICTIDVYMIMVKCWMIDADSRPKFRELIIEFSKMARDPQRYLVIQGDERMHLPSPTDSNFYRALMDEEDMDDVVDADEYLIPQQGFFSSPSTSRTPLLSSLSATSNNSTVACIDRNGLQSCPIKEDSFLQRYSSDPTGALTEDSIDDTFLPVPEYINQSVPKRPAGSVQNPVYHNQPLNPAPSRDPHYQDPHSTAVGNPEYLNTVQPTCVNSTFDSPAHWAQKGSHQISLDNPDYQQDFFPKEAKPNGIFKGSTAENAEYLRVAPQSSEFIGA
Description: as §1, §2, §3

HER2 A775_G776insYVMA = HER2 A775_G776insYVMA (Homo sapiens (Human), UniProt P04626, INS775YVMA); assay: HTRF inhibitory activity against HER2 mutant enzyme
Sequence of HER2 A775_G776insYVMA (P04626 other isoform, or with tags, fused parts or gaps del 1-675/ins YVMA behind 775 limits assumed): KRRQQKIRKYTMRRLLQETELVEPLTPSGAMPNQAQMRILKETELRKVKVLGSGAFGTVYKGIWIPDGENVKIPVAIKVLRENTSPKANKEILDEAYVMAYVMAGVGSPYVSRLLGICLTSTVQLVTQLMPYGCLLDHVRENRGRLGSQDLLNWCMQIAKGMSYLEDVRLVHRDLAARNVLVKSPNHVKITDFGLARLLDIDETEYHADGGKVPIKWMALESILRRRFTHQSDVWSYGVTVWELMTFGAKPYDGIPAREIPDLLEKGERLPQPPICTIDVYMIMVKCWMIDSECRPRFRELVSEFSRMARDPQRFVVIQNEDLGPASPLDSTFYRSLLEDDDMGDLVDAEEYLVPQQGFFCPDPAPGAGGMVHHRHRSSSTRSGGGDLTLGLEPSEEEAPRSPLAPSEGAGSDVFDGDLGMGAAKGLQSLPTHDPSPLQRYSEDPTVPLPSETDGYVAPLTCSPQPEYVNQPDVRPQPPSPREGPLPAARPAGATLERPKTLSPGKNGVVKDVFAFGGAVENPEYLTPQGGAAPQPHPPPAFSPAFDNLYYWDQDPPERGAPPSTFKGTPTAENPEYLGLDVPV
Description: The activity of the compounds of the present invention against HER mutant enzymes was measured using the HTRF system purchased by Cisbio as follows. As a HER2 mutant enzyme, the HER2 A775_G776insYVMA mutant enzyme was used by purchasing a recombinant protein provided by Carna Biosciences.
as §2, with “mM DTT. In addition thereto, the enzymatic reaction” for “mM DTT. An enzymatic reaction”, “of the activity inhibitory effect” for “of the inhibitory effect”, “compounds on HER2 A775_G776insYVMA mutation was performed” for “compounds on EGFR activity was performed”, “μL of HER2 A775_G776insYVMA mutant enzyme” for “μL of EGFR mutant enzyme”
as §3, with “Finally, the ratio of fluorescence values at 615 nm and 665 nm was measured using Perkin-Elmer's Envision instrument to calculate enzyme activity and confirm the inhibitory ability of the compounds.” left out, “ability,” for “activity,”

IC50 (EGFR A763_Y764insFHEA) [nM] | IC50 (EGFR del19) [nM] | IC50 (HER2 A775_G776insYVMA) [nM] | SMILES
20 | 10 | 920 | C=CC(=O)Nc1cc(Nc2nccc(Nc3ccccc3NS(=O)(=O)CCC)n2)c(OC)cc1N(C)CCN(C)C [Example 8, N-(2-((2-(dimethylamino)ethyl)(methyl)amino)-4-methoxy-5-((4-((2-(propylsulfonamido)phenyl)amino)pyrimidin-2-yl)amino)phenyl)acrylamide]
10 | < 1 | 440 | C=CC(=O)Nc1cc(Nc2nccc(Nc3ccccc3NS(=O)(=O)CC)n2)c(OC)cc1N(C)CCN(C)C [Example 10, N-(2-((2-(dimethylamino)ethyl)(methyl)amino)-5-((4-((2-(ethylsulfonamido)phenyl)amino)pyrimidin-2-yl)amino)-4-methoxyphenyl)acrylamide]
10 | 2 | 140 | C=CC(=O)Nc1cc(Nc2ncc(F)c(Nc3ccccc3NS(=O)(=O)CCC)n2)c(OC)cc1N(C)CCN(C)C [Example 13, N-(2-((2-(dimethylamino)ethyl)(methyl)amino)-5-((5-fluoro-4-((2-(propylsulfonamido)phenyl)amino)pyrimidin-2-yl)amino)-4-methoxyphenyl)acrylamide]
7 | < 1 | 110 | C=CC(=O)Nc1cc(Nc2ncc(C)c(Nc3ccccc3NS(=O)(=O)CCC)n2)c(OC)cc1N(C)CCN(C)C [Example 18, N-(2-((2-(dimethylamino)ethyl)(methyl)amino)-4-methoxy-5-((5-methyl-4-((2-(propylsulfonamido)phenyl)amino)pyrimidin-2-yl)amino)phenyl)acrylamide]
3 | < 1 | 34 | C=CC(=O)Nc1cc(Nc2ncc(C)c(Nc3ccccc3NS(=O)(=O)CC)n2)c(OC)cc1N(C)CCN(C)C [Example 19, N-(2-((2-(dimethylamino)ethyl)(methyl)amino)-5-((4-((2-(ethylsulfonamido)phenyl)amino)-5-methylpyrimidin-2-yl)amino)-4-methoxyphenyl)acrylamide]
3 | < 1 | 30 | C=CC(=O)Nc1cc(Nc2ncc(Cl)c(Nc3ccccc3NS(C)(=O)=O)n2)c(OC)cc1N(C)CCN1CCCCC1 [Example 23, N-(5-((5-chloro-4-((2-(methylsulfonamido)phenyl)amino)pyrimidin-2-yl)amino)-4-methoxy-2-(methyl(2-(piperidin-1-yl)ethyl)amino)phenyl)acrylamide]
9 | 3 | 30 | COc1cc(N2CCN(C)CC2)c(NC(=O)/C=C/CN(C)C)cc1Nc1ncc(Cl)c(Nc2ccccc2NS(C)(=O)=O)n1 [Example 27, (E)-N-(5-((5-chloro-4-((2-(methylsulfonamido)phenyl)amino)pyrimidin-2-yl)amino)-4-methoxy-2-(4-methylpiperazin-1-yl)phenyl)-4-(dimethylamino)buten-2-amide]
8 | < 1 | 70 | COc1cc(N(C)CCN(C)C)c(NC(=O)/C=C/CN(C)C)cc1Nc1ncc(Cl)c(Nc2ccccc2NS(C)(=O)=O)n1 [Example 28, (E)-N-(5-((5-chloro-4-((2-(methylsulfonamido)phenyl)amino)pyrimidin-2-yl)amino)-2-((2-(dimethylamino)ethyl)(methyl)amino)-4-methoxyphenyl)-4-(dimethylamino)buten-2-amide]
1 | < 1 | 20 | C=CC(=O)Nc1cc(Nc2ncc(Cl)c(Nc3cccc(Cl)c3NS(C)(=O)=O)n2)c(OC)cc1N(C)CCN(C)C [Example 34, N-(5-((5-chloro-4-((3-chloro-2-(methylsulfonamido)phenyl)amino)pyrimidin-2-yl)amino)-2-((2-(dimethylamino)ethyl)(methyl)amino)-4-methoxyphenyl)acrylamide]
< 1 | < 1 | 6 | C=CC(=O)Nc1cc(Nc2ncc(Cl)c(Nc3cccc(CC)c3NS(=O)(=O)CC)n2)c(OC)cc1N(C)CCN(C)C [Example 42, N-(5-((5-chloro-4-((3-ethyl-2-(ethylsulfonamido)phenyl)amino)pyrimidin-2-yl)amino)-2-((2-(dimethylamino)ethyl)(methyl)amino)-4-methoxyphenyl)acrylamide]

The remaining lines, values behind:

SMILES | IC50 (EGFR A763_Y764insFHEA) [nM] | IC50 (EGFR del19) [nM] | IC50 (HER2 A775_G776insYVMA) [nM]
C=CC(=O)Nc1cc(Nc2nccc(Nc3ccccc3NS(=O)(=O)c3ccc(C)cc3)n2)c(OC)cc1N(C)CCN(C)C [Example 9, N-(2-((2-(dimethylamino)ethyl)(methyl)amino)-4-methoxy-5-((4-((2-((4-methylphenyl)sulfonamido)phenyl)amino)pyrimidin-2-yl)amino)phenyl)acrylamide] | 90 | 20 | 2400
C=CC(=O)Nc1cc(Nc2ncc(F)c(Nc3ccccc3NS(=O)(=O)CC)n2)c(OC)cc1N(C)CCN(C)C [Example 12, N-(2-((2-(dimethylamino)ethyl)(methyl)amino)-5-((4-((2-(ethylsulfonamido)phenyl)amino)-5-fluoropyrimidin-2-yl)amino)-4-methoxyphenyl)acrylamide] | 4 | < 1 | 69
C=CC(=O)Nc1cc(Nc2ncc(F)c(Nc3ccccc3NS(=O)(=O)c3ccccc3)n2)c(OC)cc1N(C)CCN(C)C [Example 14, N-(2-((2-(dimethylamino)ethyl)(methyl)amino)-5-((5-fluoro-4-((2-(phenylsulfonamido)phenyl)amino)pyrimidin-2-yl)amino)-4-methoxyphenyl)acrylamide] | 2 | 1 | 410
C=CC(=O)Nc1cc(Nc2ncc(F)c(Nc3ccccc3NS(=O)(=O)c3ccc(C)cc3)n2)c(OC)cc1N(C)CCN(C)C [Example 15, N-(2-((2-(dimethylamino)ethyl)(methyl)amino)-5-((5-fluoro-4-((2-((4-methylphenyl)sulfonamido)phenyl)amino)pyrimidin-2-yl)amino)-4-methoxyphenyl)acrylamide] | 10 | 10 | 1200
C=CC(=O)Nc1cc(Nc2ncc(C)c(Nc3ccccc3NS(=O)(=O)c3ccc(C)cc3)n2)c(OC)cc1N(C)CCN(C)C [Example 17, N-(2-((2-(dimethylamino)ethyl)(methyl)amino)-4-methoxy-5-((5-methyl-4-((2-((4-methylphenyl)sulfonamido)phenyl)amino)pyrimidin-2-yl)amino)phenyl)acrylamide] | 20 | 10 | 1100
C=CC(=O)Nc1cc(Nc2ncc(C)c(Nc3ccccc3NS(=O)(=O)c3ccccc3)n2)c(OC)cc1N(C)CCN(C)C [Example 20, N-(2-((2-(dimethylamino)ethyl)(methyl)amino)-4-methoxy-5-((5-methyl-4-((2-(phenylsulfonamido)phenyl)amino)pyrimidin-2-yl)amino)phenyl)acrylamide] | 6 | 2 | 370
COc1cc(N2CCOCC2)c(NC(=O)/C=C/CN(C)C)cc1Nc1ncc(Cl)c(Nc2ccccc2NS(C)(=O)=O)n1 [Example 26, (E)-N-(5-((5-chloro-4-((2-(methylsulfonamido)phenyl)amino)pyrimidin-2-yl)amino)-4-methoxy-2-morpholinophenyl)-4-(dimethylamino)buten-2-amide] | 200 | 4 | 80
